Consider 1 substance from US20200254059A1, “THERAPEUTIC AGENT OF UREMIA CONTAINING ALARIN AS THE MAIN INGREDIENT” (JU TIDE CO., LTD., priority 2017, published 2020).

Assay type in all cases: in vivo
In data set [1] the test system is Cisplatin-induced uremia. Kind of data set: Kidney histopathological examination in cisplatin-induced uremia Sprague-Dawley rat model. As for the experimental part: (§1) The intravenous administration was done by fixing an animal into a correction frame, and slowly injecting at a rate of within 1 mL/min through the micro vein using a syringe equipped with 26 gauges needle. The intraperitoneal administration was performed by fixing the animal by a transdormal skin fixation method and intraperitoneally injecting using a syringe equipped with 26 gauges needle.
Finally, animals were inhaled with ether on an necropsy day to anesthetize and euthanize, and kidneys were extracted and fixed in a 10% neutral buffered formalin solution, and the fixed tissues were cut, dehydrated, paraffin embedded and hematoxylin & eosin stained to make a specimens for histopathological examination after these histological treatment. And then, the obtained specimen is subjected to speculum using an optical microscope (Olympus BX53, Japan).

Data set [2] concerns Cisplatin-induced uremia. Description: Blood biochemical test (serum BUN and CRE) in cisplatin-induced uremia Sprague-Dawley rat model. On the procedure: as §1
Serum obtained from the centrifugation was tested for blood urea nitrogen (BUN) and […] (CRE) using a blood biochemical analyzer (7180 Hitachi, Japan).

Data set [3] in a line: Body weight in cisplatin-induced uremia Sprague-Dawley rat model. As to conditions: all test substance-administered groups (10 and 20 μg/head, single IV dose 8 h after cisplatin 5 mg/kg IP); Day 7; versus normal control group.
Procedure: Cisplatin-induced uremia was evaluated for the effect of administration of test substance on an improvement of uremia in the Sprague-Dawley rat model. […] Cisplatin was intraperitoneally administered (IP) and test substance was intravenously administered (IV).
Setting [4] is: serum, high dose group (20 μg/1 mL/head, single IV), versus induced control group given excipient.

“Also recorded” adds a separate entry of the source.

As for “H-Ala-Pro-Ala-His-Arg-Ser-Ser-Thr-Phe-Pro-Lys-Trp-Val-Thr-Lys-Thr-Glu-Arg-Gly-Arg-Gln-Pro-Leu-Arg-Ser-OH-trifluoroacetate salt (H-APAHRSSTFPKWVTKTERGRQPLRS-OH; also: trifluoroacetate salt) [test substance, human-derived alarin, peptide derived from a splice variant of galanin-like peptide (GALP) RNA]”, the “histopathological examination results, lesion level across doses” value with Cisplatin-induced uremia [1] (10 and 20 μg/1 mL/head, single IV dose) was “dose-related change trend and significant changes in lesion level”. The “level of lesion, histopathological examination of kidney” value in the data set with Cisplatin-induced uremia [1] (high dose group (20 μg/head, single IV), H&E stained kidney, Day 7, versus control group) was “significantly lower”. For the same substance, the “improvement of uremia (overall conclusion)” value in the data set with Cisplatin-induced uremia [2] (cisplatin-induced uremia model, conclusion from blood biochemistry and histopathology) was “have an effect on the improvement of uremia”. For the same substance, in the data set on Cisplatin-induced uremia [2] (setting [4]), the “blood urea nitrogen (BUN) level” value was “significantly lower; also recorded: significant difference” and the “creatinine (CRE) level” value is on record as “significantly lower; also recorded: significant difference”. Further, the blood biochemical level entry in the data set with Cisplatin-induced uremia [2] (single dose of 10 μg/1 mL/head and 20 μg/1 mL/head IV, versus control group of excipient) is reported as “tendency to improve”. Moreover, in data set [3], the “weight level measured on the day of necropsy” value is “no significant difference”.
